From patent US20160353747A1, “COMPOSITIONS AND METHODS FOR ACHIEVING A BIOLOGICAL EFFECT IN TARGET VEGETATION” (Ento Bio LLC, priority 2015, published 2016) come the findings set out here.

The experiment concerns zinnia (Zinnia peruviana var. “Giant Dahlia”) seedlings. The experiment can be described thus: Herbicidal effect (percent control) on zinnia seedlings. The class given is in vivo. Particulars: Enz 0 mg, 2 mL dose. The protocol: In one example, combinations of cellulase and hemicellulase from Trichoderma viride (i.e. depolymerase, labeled “Enz” in Table 1), bovine serum albumin (i.e. non-depolymerase protein, labeled “BSA” in Table 1), and glyphosate (labeled “Gly” in Table 1) are blended and applied in 2 mL doses directly to zinnia (Zinnia peruviana var. “Giant Dahlia”) seedlings at the first true leaf stage. Treatments ranged from 0-1.6 mg of depolymerase that consisted of cellulase from Trichoderma viride and hemicellulase from Aspergillus niger in a ratio of 10.5:6, respectively; non-depolymerase BSA from 0-24 mg; and glyphosate from 0-0.3 mg. […] Herbicidal effect was assessed 12 days after treatment (DAT). Percent control ratings ascertained the extent of control, i.e. reduction in growth, and were scored on a basis of 0 to 100 where 100 represents complete killing of the plants and 0 represents no reduction in growth as compared to the untreated control.

In the case of `O=C(O)CNCP(=O)(O)O` [Gly, glyphosate], the “Percent Control 12 DAT” value is, setting by setting: (Gly 0.003 mg, BSA 0 mg) 0%; (Gly 0.03 mg, BSA 0 mg) 28%; (Gly 0.3 mg, BSA 0 mg) 28%.
Turning to bovine serum albumin [BSA], the “Percent Control 12 DAT” value is reported as 3% (Gly 0 mg, BSA 0.24 mg); 7% (Gly 0 mg, BSA 2.4 mg); 13% (Gly 0 mg, BSA 24 mg).
